Test results published in PMC9535710 (ACS Omega, 2022).

What was measured:
SKLU-1 (lung) = assay: SRB cytotoxicity, SKLU-1 lung cells; type: cell-based, human; conditions: Homo sapiens, SK-LU-1, read-out: IC50 SKLU-1
U251 (glioblastoma) = assay: SRB cytotoxicity, U251 glioblastoma cells; type: cell-based, human; conditions: Homo sapiens, U-251, read-out: IC50 U251
HCT-15 (colon) = assay: SRB cytotoxicity, HCT-15 colon cells; type: cell-based, human; conditions: Homo sapiens, HCT-15, read-out: IC50 HCT-15
K562 (leukemia) = assay: SRB cytotoxicity, K562 leukemia cells; type: cell-based, human; conditions: Homo sapiens, K562, read-out: IC50 K562
[1] = SRB cytotoxicity, SKLU-1 lung cells; type: cell-based, human; conditions: human, SKLU-1 lung tumor cells
[2] = SRB cytotoxicity, MCF-7 breast cells; type: cell-based; conditions: human, MCF-7 breast tumor cells
[3] = SRB cytotoxicity, PC-3 prostate cells; type: cell-based; conditions: human, PC-3 prostate tumor cells
[4] = SRB cytotoxicity, U251 glioblastoma cells; type: cell-based, human; conditions: human, U251 glioblastoma cells
[5] = SRB cytotoxicity, HCT-15 colon cells; type: cell-based, human; conditions: human, HCT-15 colon tumor cells
[6] = SRB cytotoxicity, K562 leukemia cells; type: cell-based, human; conditions: human, K562 leukemia cells

COc1cc([C@@H]2c3cc4c(cc3[C@@H](O[C@@H]3O[C@@H]5CO[C@@H](C)O[C@H]5[C@H](O)[C@H]3O)[C@H]3COC(=O)[C@H]23)OCO4)cc(OC)c1O [etoposide, reference compound]
IC50 (SKLU-1 (lung)): 2600 ± 300 nM | IC50 (U251 (glioblastoma)): 2400 ± 200 nM | IC50 (HCT-15 (colon)): 4800 ± 500 nM | IC50 (K562 (leukemia)): 2200 ± 700 nM

C=C(C)[C@@H]1CC[C@]2(C)CC[C@]3(C)[C@H](CC[C@@H]4[C@@]5(C)CC[C@H](O)C(C)(C)[C@@H]5CC[C@]43C)[C@@H]12 [lupeol (5), lupeol]
inhibition at 50 μM [1]: 13% | inhibition at 50 μM [2]: 22.3% | inhibition at 50 μM [3]: 50.7% | inhibition at 50 μM [4]: 27.3% | inhibition at 50 μM [5]: 10.4% | inhibition at 50 μM [6]: 48.8%

CC(C)=CCC[C@@H](C)[C@@H]1CC[C@]2(C)C3=C(CC[C@@]12C)[C@@]1(C)CC[C@H](O)C(C)(C)[C@@H]1CC3 [euphol (2), eupha-8,24-dien-3β-ol]
inhibition at 50 μM [1]: 4.9% | inhibition at 50 μM [2]: 36.6% | inhibition at 50 μM [5]: 2.18% | inhibition at 50 μM [6]: 26.9%
